# Data reported in ChEMBL document CHEMBL2046334, “New farnesyltransferase inhibitors in the phenothiazine series” (Bioorg Med Chem Lett, 2012).
# Calls of active or inactive are those of the source. The calls are words filed in the database; no cut-off is given here.
# What was measured:
# [1] = molecular target: T1, Protein farnesyltransferase (Homo sapiens, UniProt P49354+P49356); assay: Inhibition of partially purified human recombinant FTase measured for 15 mins by automated fluorescence based assay; assay type: protein-complex assay
# [2] = molecular target: T1, Protein farnesyltransferase; assay: Inhibition of partially purified human recombinant FTase at 100 uM measured for 15 mins by automated fluorescence based assay relative to control; assay type: protein-complex assay
# SK-MEL-5 = assay: Growth inhibition of human SK-MEL-5 cells at 10 uM after 48 hrs by sulforhodamine B assay relative to control; assay type: functional; conditions: SK-MEL-5, 48 h, read-out: GI
# LOX IMVI = assay: Growth inhibition of human LOXIMVI cells at 10 uM after 48 hrs by sulforhodamine B assay relative to control; assay type: functional; conditions: for inhibition of growth at 10 µM: read-out: GI
# CAKI-1 = assay: Growth inhibition of human Caki1 cells at 10 uM after 48 hrs by sulforhodamine B assay relative to control; assay type: functional; conditions: CAKI-1, 48 h, read-out: GI
# PC-3 = assay: Growth inhibition of human PC3 cells at 10 uM after 48 hrs by sulforhodamine B assay relative to control; assay type: functional; conditions: PC-3, 48 h, read-out: GI
# SNB-75 = assay: Growth inhibition of human SNB75 cells at 10 uM after 48 hrs by sulforhodamine B assay relative to control; assay type: functional; conditions: SNB-75, 48 h, read-out: GI
# HL-60(TB) = assay: Growth inhibition of human HL-60(TB) cells at 10 uM after 48 hrs by sulforhodamine B assay relative to control; assay type: functional; conditions: HL-60, 48 h, read-out: GI
# MDA-MB-231 = assay: Growth inhibition of human MDA-MB-231 cells at 10 uM after 48 hrs by sulforhodamine B assay relative to control; assay type: functional; conditions: MDA-MB-231, 48 h, read-out: GI
# UO-31 = assay: Growth inhibition of human UO31 cells at 10 uM after 48 hrs by sulforhodamine B assay relative to control; assay type: functional; conditions: UO-31, 48 h, read-out: GI
# T47D = assay: Growth inhibition of human T47D cells at 10 uM after 48 hrs by sulforhodamine B assay relative to control; assay type: functional; conditions: read-out: GI
# CCRF-CEM = assay: Growth inhibition of human CCRF-CEM cells at 10 uM after 48 hrs by sulforhodamine B assay relative to control; assay type: functional; conditions: read-out: GI
# HCT-15 = assay: Growth inhibition of human HCT15 cells at 10 uM after 48 hrs by sulforhodamine B assay relative to control; assay type: functional; conditions: for inhibition of growth at 10 µM: HCT-15, 48 h, read-out: GI
# MOLT-4 = assay: Growth inhibition of human MOLT4 cells at 10 uM after 48 hrs by sulforhodamine B assay relative to control; assay type: functional; conditions: MOLT-4, 48 h, read-out: GI
# EKVX = assay: Growth inhibition of human EKVX cells at 10 uM after 48 hrs by sulforhodamine B assay relative to control; assay type: functional; conditions: for inhibition of growth at 10 µM: read-out: GI
# RPMI-8226 = assay: Growth inhibition of human RPMI8226 cells at 10 uM after 48 hrs by sulforhodamine B assay relative to control; assay type: functional; conditions: RPMI-8226, 48 h, read-out: GI
# OVCAR-8 = assay: Growth inhibition of human OVCAR8 cells at 10 uM after 48 hrs by sulforhodamine B assay relative to control; assay type: functional; conditions: for inhibition of growth at 10 µM: OVCAR-8, 48 h, read-out: GI
# UACC-62 = assay: Growth inhibition of human UACC62 cells at 10 uM after 48 hrs by sulforhodamine B assay relative to control; assay type: functional; conditions: UACC-62, 48 h, read-out: GI
structure (smiles),measurement,setting,value
N#Cc1ccc(C(=O)Cn2cc(CNC(=O)CCN3c4ccccc4Sc4ccccc43)nn2)cc1,IC50,[1],5.2 µM
Cc1ccc(C(=O)Cn2cc(CNC(=O)CCN3c4ccccc4Sc4ccccc43)nn2)cc1,inhibition,[2],44.2%
O=C(CN1c2ccccc2Sc2ccccc21)NCc1cn(CC(=O)c2ccc(F)cc2)nn1,inhibition,[2],0%
COc1ccc(C(=O)Cn2cc(CNC(=O)CCN3c4ccccc4Sc4ccccc43)nn2)cc1,inhibition,[2],29.3%
O=C(CCN1c2ccccc2Sc2ccccc21)OCc1cn(CC(=O)c2ccc(F)cc2)nn1,inhibition,[2],35.2%
O=C(CN1c2ccccc2Sc2ccccc21)NCc1cn(CC(=O)N2c3ccccc3Sc3ccccc32)nn1,inhibition,[2],0%
COc1ccc(C(=O)Cn2cc(COC(=O)CCN3c4ccccc4Sc4ccccc43)nn2)cc1,inhibition,[2],22.3%
O=C(CCN1c2ccccc2Sc2ccccc21)NCc1cn(CC(=O)c2ccc(F)cc2)nn1,inhibition of growth at 10 µM,SK-MEL-5,14%
same,inhibition of growth at 10 µM,LOX IMVI,12%
same,inhibition of growth at 10 µM,CAKI-1,17%
same,inhibition of growth at 10 µM,PC-3,26%
same,inhibition of growth at 10 µM,SNB-75,19%
same,inhibition of growth at 10 µM,HL-60(TB),20%
same,inhibition of growth at 10 µM,MDA-MB-231,3%
same,inhibition of growth at 10 µM,UO-31,18%
same,inhibition of growth at 10 µM,T47D,7%
same,inhibition of growth at 10 µM,CCRF-CEM,20%
same,growth inhibition (GI),HCT-15,inactive
same,inhibition of growth at 10 µM,MOLT-4,38%
same,inhibition of growth at 10 µM,EKVX,22%
same,inhibition,[2],52.6%
same,inhibition of growth at 10 µM,RPMI-8226,3%
same,growth inhibition (GI),OVCAR-8,inactive
same,inhibition of growth at 10 µM,UACC-62,14%
O=C(CCN1c2ccccc2Sc2ccccc21)NCc1cn(CC(=O)c2ccc(Cl)cc2)nn1,inhibition of growth at 10 µM,SK-MEL-5,13%
same,inhibition of growth at 10 µM,LOX IMVI,9%
same,inhibition of growth at 10 µM,CAKI-1,32%
same,inhibition of growth at 10 µM,PC-3,38%
same,inhibition of growth at 10 µM,SNB-75,20%
same,inhibition of growth at 10 µM,HL-60(TB),68%
same,IC50,[1],7.7 µM
same,inhibition of growth at 10 µM,MDA-MB-231,4%
same,inhibition of growth at 10 µM,UO-31,36%
same,inhibition of growth at 10 µM,T47D,22%
same,inhibition of growth at 10 µM,CCRF-CEM,19%
same,inhibition of growth at 10 µM,HCT-15,8%
same,inhibition of growth at 10 µM,MOLT-4,40%
same,inhibition of growth at 10 µM,EKVX,30%
same,inhibition of growth at 10 µM,RPMI-8226,19%
same,inhibition of growth at 10 µM,OVCAR-8,17%
same,inhibition of growth at 10 µM,UACC-62,26%
O=C(CCN1c2ccccc2Sc2ccccc21)OCc1cn(CC(=O)c2ccc(Br)cc2)nn1,IC50,[1],1.3 µM
O=C(CN1c2ccccc2Sc2ccccc21)OCc1cn(CC(=O)c2ccc(F)cc2)nn1,inhibition,[2],31.9%
O=C(CCN1c2ccccc2Sc2ccccc21)NCc1cn(CC(=O)N2c3ccccc3Sc3ccccc32)nn1,inhibition,[2],0%
N#Cc1ccc(C(=O)Cn2cc(CNC(=O)CN3c4ccccc4Sc4ccccc43)nn2)cc1,inhibition,[2],24.9%
Cc1ccc(C(=O)Cn2cc(CNC(=O)CN3c4ccccc4Sc4ccccc43)nn2)cc1,inhibition,[2],19%
Cc1ccc(C(=O)Cn2cc(COC(=O)CCN3c4ccccc4Sc4ccccc43)nn2)cc1,inhibition,[2],10.7%
O=C(CN1c2ccccc2Sc2ccccc21)OCc1cn(CC(=O)c2ccc(Br)cc2)nn1,inhibition,[2],35.5%
O=C(CCN1c2ccccc2Sc2ccccc21)NCc1cn(CC(=O)c2ccc(Br)cc2)nn1,inhibition of growth at 10 µM,SK-MEL-5,24%
same,inhibition of growth at 10 µM,LOX IMVI,17%
same,inhibition of growth at 10 µM,CAKI-1,37%
same,inhibition of growth at 10 µM,PC-3,42%
same,inhibition of growth at 10 µM,SNB-75,18%
same,inhibition of growth at 10 µM,HL-60(TB),41%
same,IC50,[1],8.3 µM
same,inhibition of growth at 10 µM,MDA-MB-231,14%
same,inhibition of growth at 10 µM,UO-31,42%
same,inhibition of growth at 10 µM,T47D,29%
same,inhibition of growth at 10 µM,CCRF-CEM,18%
same,inhibition of growth at 10 µM,HCT-15,7%
same,inhibition of growth at 10 µM,MOLT-4,34%
same,inhibition of growth at 10 µM,EKVX,24%
same,inhibition of growth at 10 µM,RPMI-8226,15%
same,growth inhibition (GI),OVCAR-8,inactive
same,inhibition of growth at 10 µM,UACC-62,29%
O=C(CCN1c2ccccc2Sc2ccccc21)OCc1cn(CC(=O)c2ccc(Cl)cc2)nn1,IC50,[1],1.5 µM
N#Cc1ccc(C(=O)Cn2cc(COC(=O)CCN3c4ccccc4Sc4ccccc43)nn2)cc1,inhibition,[2],55.1%
COc1ccc(C(=O)Cn2cc(CNC(=O)CN3c4ccccc4Sc4ccccc43)nn2)cc1,inhibition,[2],24.4%
O=C(CN1c2ccccc2Sc2ccccc21)NCc1cn(CC(=O)c2ccc(Cl)cc2)nn1,inhibition,[2],40%
N#Cc1ccc(C(=O)Cn2cc(COC(=O)CN3c4ccccc4Sc4ccccc43)nn2)cc1,inhibition,[2],20.7%
O=C(CN1c2ccccc2Sc2ccccc21)NCc1cn(CC(=O)c2ccc(Br)cc2)nn1,inhibition of growth at 10 µM,SK-MEL-5,5%
same,growth inhibition (GI),LOX IMVI,inactive
same,inhibition of growth at 10 µM,CAKI-1,13%
same,inhibition of growth at 10 µM,SNB-75,18%
same,inhibition of growth at 10 µM,HL-60(TB),13%
same,IC50,[1],24.3 µM
same,inhibition of growth at 10 µM,MDA-MB-231,9%
same,inhibition of growth at 10 µM,UO-31,13%
same,inhibition of growth at 10 µM,T47D,12%
same,inhibition of growth at 10 µM,CCRF-CEM,17%
same,inhibition of growth at 10 µM,HCT-15,16%
same,inhibition of growth at 10 µM,MOLT-4,42%
same,growth inhibition (GI),EKVX,inactive
same,inhibition of growth at 10 µM,RPMI-8226,22%
same,inhibition of growth at 10 µM,OVCAR-8,6%
same,inhibition of growth at 10 µM,UACC-62,25%
O=C(CN1c2ccccc2Sc2ccccc21)NCc1cn(CC(=O)N2c3ccccc3Sc3ccc(Cl)cc32)nn1,inhibition,[2],0%
